test system: NCI-H358 (KRAS^G12C mutation) cell; assay: Cell assay of antiproliferative activity against NCI-H358 cell (Celltiter-Glo, 5 days); assay type: cell-based; conditions: 5 days incubation
Description: Cell Assay of Antiproliferative Activity of Compounds Against NCI-H358 (KRAS^G12C Mutation) Cell.
40 μL phosphate buffer was added to the outer wells of the 384 microplate, and 40 μL cell suspension to be tested was added to the other wells. Then the microplate was incubated in a carbon dioxide incubator overnight.
The compounds to be tested were gradiently diluted, each compound was performed 10 concentration gradients (diluted from 50 μM to 0.003 μM) and added 100 nL to the corresponding wells in the microplate. After addition, 40 μl of phosphate buffer was added to each well in rows A and P and columns 1 and 24, and then the microplate was incubated in a carbon dioxide incubator for 5 days.
20 μL of Promega Celltiter-Glo reagent was added to each well of the microplate, and then the luminescence signal was stabilized by oscillating at room temperature for 10 min. Then PekinElmer Envision multi-label analyzer was used to read.
Finally, GraphPad Prism software was used to calculate the IC50 value of the compound and the fitting curve was drawn.
Anti-proliferative activity of the compounds of the present invention against NCI-H358 (KRAS^G12C mutation) cell was shown in Table 1.

Compared with `C=CC(=O)N1CCN(c2nc(=O)n(-c3c(C(C)C)cccc3S(C)(=O)=O)c3nc(-c4ccccc4Cl)c(F)cc23)[C@@H](C)C1` (single isomer, unassigned) [Example 30B], `C=CC(=O)N1CCN(c2nc(=O)n(-c3c(C(C)C)ccnc3S(C)(=O)=O)c3nc(-c4ccccc4Cl)c(F)cc23)[C@@H](C)C1` (single isomer, unassigned) [Example 20A] is 140-fold higher in IC50: 11 nM for the first, 1500 nM for the second.

Compared with `C=CC(=O)N1C[C@H](C)N(c2nc(=O)n(-c3c(C4CC4)cccc3S(C)(=O)=O)c3nc(-c4c(O)cccc4F)c(F)cc23)C[C@H]1C` (single isomer, unassigned) [Example 81B], `C=CC(=O)N1CCN(c2nc(=O)n(-c3c(C4CC4)cccc3S(C)(=O)=O)c3nc(-c4c(O)cccc4F)c(F)cc23)[C@@H](C)C1` (single isomer, unassigned) [Example 6B] is 1.7-fold higher in IC50: 9 nM for the first, 15 nM for the second.

`C=CC(=O)N1CCN(c2nc(=O)n(-c3ccccc3S(C)(=O)=O)c3nc(-c4c(O)cccc4F)c(F)cc23)CC1CC#N` (stereo not shown) [Example 90, 2-(1-acryloyl-4-(6-fluoro-7-(2-fluoro-6-hydroxyphenyl)-1-(2-(methylsulfonyl)phenyl)-2-oxo-1,2-dihydropyridino [2,3-d]pyrimidin-4-yl)piperazin-2-yl) acetonitrile] and `C=CC(=O)N1CCN(c2nc(=O)n(-c3cccnc3S(C)(=O)=O)c3nc(-c4c(O)cccc4F)c(F)cc23)[C@@H](C)C1` [Example 88, 4-((S)-4-acryloyl-2-methylpiperazin-1-yl)-6-fluoro-7-(2-fluoro-6-hydroxyphenyl)-1-(2-(methylsulfonyl)pyridin-3-yl) pyridino [2,3-d] pyrimidin-2(1H)-one] fall in the same range of IC50: 1000 to 10000 nM for the first, 1000 to 10000 nM for the second.

`C=CC(=O)N1CCN(c2nc(=O)n(-c3c(C(C)C)ccnc3S(C)(=O)=O)c3nc(-c4c(F)cccc4OC(C)=O)c(F)cc23)[C@@H](C)C1` [Example 24] and `C=CC(=O)N1CCN(c2nc(=O)n(-c3c(CC)cccc3S(=O)(=O)C(C)C)c3nc(-c4c(O)cccc4F)c(F)cc23)[C@@H](C)C1` (single isomer, unassigned) [Example 83B] are within 1.5-fold of each other in IC50: 28 nM for the first, 26 nM for the second.

Work on `C=CC(=O)N1C[C@H](C)N(c2nc(=O)n(-c3c(CC)cccc3S(C)(=O)=O)c3nc(-c4c(O)cccc4F)c(Cl)cc23)C[C@H]1C` (single isomer, unassigned) [Example 84B] yielded an IC50 of 6 nM.

same assay, conditions: Homo sapiens, NCI-H358, 120 h, 5 days incubation

Going from `C=CC(=O)N1CCN(c2nc(=O)n(-c3c(C(C)C)cccc3S(C)(=O)=O)c3nc(-c4ccc(C#N)cc4Cl)c(F)cc23)[C@@H](C)C1` [Example 66, (S)-4-(4-(4-acryloyl-2-methylpiperazin-1-yl)-6-fluoro-1-(2-isopropyl-6-(methylsulfonyl)phenyl)-2-oxo-1,2-dihydropyridino [2,3-d]pyrimidin-7-yl)-3-chlorobenzonitrile] to `C=CC(=O)N1CCN(c2nc(=O)n(-c3c(C(C)C)cccc3S(C)(=O)=O)c3nc(-c4cc(C#N)ccc4Cl)c(F)cc23)[C@@H](C)C1` [Example 64, (S)-3-(4-(4-acryloyl-2-methylpiperazin-1-yl)-6-fluoro-1-(2-isopropyl-6-(methylsulfonyl)phenyl)-2-oxo-1,2-dihydropyridino[2,3-d]pyrimidin-7-yl)-4-chlorobenzonitrile], the IC50 falls from over 10000 nM to 120 nM. The second is the more potent here.

`C=CC(=O)N1CCN(c2nc(=O)n(-c3c(C)cccc3S(=O)(=O)C(C)C)c3nc(-c4c(O)cccc4F)c(F)cc23)[C@@H](C)C1` [Example 4, 4-((S)-4-acryloyl-2-methylpiperazin-1-yl)-6-fluoro-7-(2-fluoro-6-hydroxyphenyl)-1-(2-(isopropylsulfonyl)-6-methylphenyl) pyridino[2,3-d] pyrimidin-2(1H)-one] and `C=CC(=O)N1CCN(c2nc(=O)n(-c3ccccc3S(=O)(=O)C(C)C)c3nc(-c4c(O)cccc4F)c(F)cc23)[C@@H](C)C1` [Example 86, 4-((S)-4-acryloyl-2-methylpiperazin-1-yl)-6-fluoro-7-(2-fluoro-6-hydroxyphenyl)-1-(2-(isopropylsulfonyl)phenyl) pyridino[2,3-d] pyrimidin-2(1H)-one] cannot be ordered by IC50: 420 nM for the first, under 1000 nM for the second.

Going from `C=CC(=O)N1C[C@H](C)N(c2nc(=O)n(-c3c(CC)cccc3S(C)(=O)=O)c3nc(-c4c(O)cccc4F)c(F)cc23)C[C@H]1C` [Example 12, 4-((2S,5R)-4-acryloyl-2,5-dimethylpiperazin-1-yl)-1-(2-ethyl-6-(methylsulfonyl)phenyl)-6-fluoro-7-(2-fluoro-6-hydroxyphenyl) pyridino [2,3-d] pyrimidin-2 (1H)-one] to `C=CC(=O)N1CCN(c2nc(=O)n(-c3c(Cl)cccc3S(C)(=O)=O)c3nc(-c4c(O)cccc4F)c(F)cc23)[C@@H](C)C1` [Example 8, 4-((S)-4-acryloyl-2-methylpiperazin-1-yl)-1-(2-chloro-6-(methylsulfonyl)phenyl)-6-fluoro-7-(2-fluoro-6-hydroxyphenyl) pyridino [2,3-d] pyrimidin-2 (1H)-one], the IC50 rises from 41 nM to 170 nM (4.1-fold).

Going from `C=CC(=O)N1CCN(c2nc(=O)n(-c3c(C(C)C)ccnc3S(C)(=O)=O)c3nc(-c4ccc(F)cc4Cl)c(F)cc23)[C@@H](C)C1` [Example 22, (S)-4-(4-acryloyl-2-methylpiperazin-1-yl)-7-(2-chloro-4-fluorophenyl)-6-fluoro-1-(4-isopropyl-2-(methylsulfonyl)pyridin-3-yl) pyridino[2,3-d]pyrimidin-2(1H)-one] to `C=CC(=O)N1CCN(c2nc(=O)n(-c3c(C(C)C)cccc3S(C)(=O)=O)c3nc(-c4cccc(C#N)c4Cl)c(F)cc23)[C@@H](C)C1` [Example 65, (S)-3-(4-(4-acryloyl-2-methylpiperazin-1-yl)-6-fluoro-1-(2-isopropyl-6-(methylsulfonyl)phenyl)-2-oxo-1,2-dihydropyridino[2,3-d]pyrimidin-7-yl)-2-chlorobenzonitrile], the IC50 rises from 39 nM to over 10000 nM. The first is the more potent here.

Going from `C=CC(=O)N1CCN(c2nc(=O)n(-c3c(C(C)C)cccc3S(C)(=O)=O)c3nc(-c4c(C)ncn4C)c(F)cc23)[C@@H](C)C1` [Example 76, 4-((S)-4-acryloyl-methylpiperazin-1-yl)-7-(1,4-dimethyl-1H-imidazol-5-yl)-6-fluoro-1-(2-isopropyl-6-(methylsulfonyl)phenyl) pyridino [2,3-d] pyrimidin-2 (1H)-one] to `C=C(F)C(=O)N1CCN(c2nc(=O)n(-c3c(C(C)C)cccc3S(C)(=O)=O)c3nc(-c4c(O)cccc4F)c(F)cc23)[C@@H](C)C1` [Example 21], the IC50 falls from over 10000 nM to 1200 nM.

Going from `C=CC(=O)N1CCN(c2nc(=O)n(-c3c(C)cccc3N(C)S(C)(=O)=O)c3nc(-c4c(O)cccc4F)c(F)cc23)[C@@H](C)C1` [Example 11] to `C=CC(=O)N1CCN(c2nc(=O)n(-c3c(C4CC4)cccc3S(C)(=O)=O)c3nc(-c4ccccc4F)c(F)cc23)[C@@H](C)C1` [Example 13, (S)-4-(4-acryloyl-2-methylpiperazin-1-yl)-1-(2-cyclopropyl-6-(methylsulfonyl)phenyl)-6-fluoro-7-(2-fluorophenyl) pyridin [2,3-d] pyrimidin-2(1H)-one], the IC50 falls from 180 nM to 15 nM (12-fold). The second is the more potent here.

`C=CC(=O)N1CCN(c2nc(=O)n(-c3cccnc3S(C)(=O)=O)c3nc(-c4c(O)cccc4F)c(F)cc23)CC1CC#N` (stereo not shown) [Example 58, 2-(1-acryloyl-4-(6-fluoro-7-(2-fluoro-6-hydroxyphenyl)-1-(2-(methylsulfonyl)pyridin-3-yl)-2-oxo-1,2-dihydropyridino [2,3-d]pyrimidin-4-yl)piperazin-2-yl) acetonitrile] was tested, and the IC50 was 10000 nM.
